One block for each compound: values may come before it.
Legend:
[1] = biological target: T1, PI3K beta (Homo sapiens, UniProt P42338); assay: PI3K beta kinase assay (Kinase-Glo luminescence); assay type: biochemical
T1 construct: for the full-length p110-b subunit are generated and fused by overlapping PCR; p85(iSH2) fusion partner (see partner chain) (N); His tag (C); made in house; host or cells: baculovirus; Tn5 (Trichoplusia ni) or TiniPro insect cells
Method in brief: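 Kinase-Glo luminescence after a 60 min room-temperature reaction gives remaining ATP. The reaction holds 25 nM p85(iSH2)-p110β full-length His-tagged construct, 1 μM ATP, 10 μg/mL PI, and eight compound concentrations at 0.45% DMSO final. IC50 values come from a four-parameter logistic fit.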

[2] = test system: PKB Ser473 phosphorylation in Rat1-myr-HA-p110 delta cells; assay: Reverse protein array assay, PKB Ser473 phosphorylation in Rat1-myr-p110 delta cells; assay type: cell-based; settings: read-out: p-PKB IC50
Method in brief: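 After at least 20 h of culture, the p110 isoform-transfected Rat1 lines receive compound in an 8-step dilution series, keeping DMSO at 0.2%, for 30 minutes. Cells are then lysed and lysates arrayed on chips for fluorescence detection of Ser473-phosphorylated PKB.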

[3] = biological target: T2, mTOR (Homo sapiens, UniProt P42345); assay: Biochemical assay for m-TOR by TR-FRET; settings: 8 μM ATP, 400 nM GFP-4EBP1, 0.5 nM mTOR
T2 construct: purchased Invitrogen Corporation (Carlsbad/CA, USA) PV4753
Method in brief: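 TR-FRET read-out: Tb-labelled anti-p4EBP1 pThr46 antibody (0.5 nM), added in EDTA to stop the reaction, detects phosphorylated GFP-4EBP1 after 15 min. Kinase step used 0.5 nM mTOR, 400 nM substrate, 8 μM ATP, MnCl2-containing HEPES buffer pH 7.5, room temperature.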

T2 sequence (P42345 1360-2549 limits assumed): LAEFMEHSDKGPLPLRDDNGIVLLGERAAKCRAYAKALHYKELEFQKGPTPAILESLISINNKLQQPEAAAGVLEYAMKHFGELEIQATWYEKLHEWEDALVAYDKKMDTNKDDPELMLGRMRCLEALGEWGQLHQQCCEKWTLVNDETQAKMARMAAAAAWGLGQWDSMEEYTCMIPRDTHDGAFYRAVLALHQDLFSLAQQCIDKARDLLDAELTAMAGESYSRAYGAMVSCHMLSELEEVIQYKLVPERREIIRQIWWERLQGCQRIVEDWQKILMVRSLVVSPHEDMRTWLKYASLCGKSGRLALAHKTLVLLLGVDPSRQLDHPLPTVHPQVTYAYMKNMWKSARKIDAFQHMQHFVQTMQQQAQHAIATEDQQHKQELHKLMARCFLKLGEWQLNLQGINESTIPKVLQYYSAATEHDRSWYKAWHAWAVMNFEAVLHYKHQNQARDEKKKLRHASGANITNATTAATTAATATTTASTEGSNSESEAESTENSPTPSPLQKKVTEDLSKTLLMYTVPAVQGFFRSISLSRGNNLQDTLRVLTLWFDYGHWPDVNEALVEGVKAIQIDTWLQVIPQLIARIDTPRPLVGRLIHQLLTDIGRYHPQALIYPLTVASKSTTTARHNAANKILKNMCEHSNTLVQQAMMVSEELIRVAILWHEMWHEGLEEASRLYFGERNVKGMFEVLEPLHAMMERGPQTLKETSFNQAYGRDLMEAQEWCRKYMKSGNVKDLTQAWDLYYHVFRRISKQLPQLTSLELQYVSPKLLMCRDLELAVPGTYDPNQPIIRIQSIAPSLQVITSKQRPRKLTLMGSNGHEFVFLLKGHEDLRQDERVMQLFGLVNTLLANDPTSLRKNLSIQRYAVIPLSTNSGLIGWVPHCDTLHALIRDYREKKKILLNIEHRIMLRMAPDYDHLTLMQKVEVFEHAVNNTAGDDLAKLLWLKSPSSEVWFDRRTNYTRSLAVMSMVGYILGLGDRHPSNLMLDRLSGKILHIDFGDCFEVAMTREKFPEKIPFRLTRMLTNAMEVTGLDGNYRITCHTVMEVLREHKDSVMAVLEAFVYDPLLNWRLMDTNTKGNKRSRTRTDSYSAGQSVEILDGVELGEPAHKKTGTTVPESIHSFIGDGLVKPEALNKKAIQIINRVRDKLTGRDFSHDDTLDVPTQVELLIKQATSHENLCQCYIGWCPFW
T1 sequence (P42338 with tags, fused parts or gaps limits assumed): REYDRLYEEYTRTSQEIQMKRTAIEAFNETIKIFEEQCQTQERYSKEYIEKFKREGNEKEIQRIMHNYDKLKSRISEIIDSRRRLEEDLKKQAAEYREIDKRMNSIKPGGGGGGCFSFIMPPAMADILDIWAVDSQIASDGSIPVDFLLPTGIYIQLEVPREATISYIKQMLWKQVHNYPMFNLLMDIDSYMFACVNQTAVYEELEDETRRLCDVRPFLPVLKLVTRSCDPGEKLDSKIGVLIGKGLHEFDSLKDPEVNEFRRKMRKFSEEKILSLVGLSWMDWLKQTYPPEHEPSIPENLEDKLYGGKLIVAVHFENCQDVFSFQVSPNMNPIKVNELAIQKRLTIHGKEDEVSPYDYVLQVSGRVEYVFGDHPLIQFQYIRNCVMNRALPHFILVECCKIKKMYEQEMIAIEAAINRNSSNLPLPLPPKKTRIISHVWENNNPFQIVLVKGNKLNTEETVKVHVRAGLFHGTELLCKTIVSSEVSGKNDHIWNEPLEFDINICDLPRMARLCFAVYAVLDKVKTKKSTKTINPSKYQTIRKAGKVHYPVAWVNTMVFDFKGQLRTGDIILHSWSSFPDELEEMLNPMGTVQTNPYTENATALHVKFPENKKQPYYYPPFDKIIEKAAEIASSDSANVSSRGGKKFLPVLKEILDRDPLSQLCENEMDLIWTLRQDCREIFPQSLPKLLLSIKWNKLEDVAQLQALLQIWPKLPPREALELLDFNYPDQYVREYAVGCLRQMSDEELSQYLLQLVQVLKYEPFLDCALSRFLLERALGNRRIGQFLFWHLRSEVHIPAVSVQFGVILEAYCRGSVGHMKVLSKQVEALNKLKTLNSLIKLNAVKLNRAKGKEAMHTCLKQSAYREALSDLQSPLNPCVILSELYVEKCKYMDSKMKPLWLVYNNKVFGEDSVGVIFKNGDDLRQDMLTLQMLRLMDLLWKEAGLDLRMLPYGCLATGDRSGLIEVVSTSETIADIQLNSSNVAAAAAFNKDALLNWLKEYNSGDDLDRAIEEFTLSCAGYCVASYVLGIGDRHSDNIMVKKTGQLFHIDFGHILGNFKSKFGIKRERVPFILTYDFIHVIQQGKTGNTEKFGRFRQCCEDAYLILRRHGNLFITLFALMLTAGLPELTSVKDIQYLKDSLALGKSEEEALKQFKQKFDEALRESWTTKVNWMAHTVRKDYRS

Compound: Cc1nn(C)cc1-n1c(=O)n(C)c2cnc3ccc(-c4ccc(C(N)=O)nc4)cc3c21 [Example 14, 5-[1-(1,3-Dimethyl-1H-pyrazol-4-yl)-3-methyl-2-oxo-2,3-dihydro-1H-imidazo[4,5-c]quinolin-8-yl]-pyridine-2-carboxylic acid amide]
- IC50 [1]: 0.13 µM
- IC50 [2]: 0.074 µM
- IC50 [3]: 0.006 µM

Compound: Cc1nn(C)c(C)c1-n1c(=O)n(C)c2cnc3ccc(-c4ccc(CO)nc4)cc3c21 [Example 16.4, 8-(6-Hydroxymethyl-pyridin-3-yl)-3-methyl-1-(1,3,5-trimethyl-1H-pyrazol-4-yl)-1,3-dihydro-imidazo[4,5-c]quinolin-2-one]
- IC50 [1]: 0.515 µM
- IC50 [2]: 1.51 µM
- IC50 [3]: 0.666 µM

Compound: Cn1cc(-n2c(=O)n(C)c3cnc4ccc(-c5ccc(CO)nc5)cc4c32)c(Cl)n1 [Example 16.5, 1-(3-chloro-1-methyl-1H-pyrazol-4-yl)-8-(6-hydroxymethyl-pyridin-3-yl)-3-methyl-1,3-dihydro-imidazo[4,5-c]quinolin-2-one]
- IC50 [1]: 0.028 µM
- IC50 [2]: 0.028 µM
- IC50 [3]: 0.006 µM

Compound: Cn1nccc1-n1c(=O)n(C)c2cnc3ccc(-c4ccc(NCCO)nc4)cc3c21 [Example 21.1, 8-[6-(2-Hydroxy-ethylamino)-pyridin-3-yl]-3-methyl-1-(2-methyl-2H-pyrazol-3-yl)-1,3-dihydro-imidazo[4,5-c]quinolin-2-one]
- IC50 [1]: 0.946 µM
- IC50 [2]: 0.906 µM
- IC50 [3]: 0.201 µM

Other lines, results leading:

- IC50 [1]: 0.026 µM
- IC50 [2]: 0.17 µM
- IC50 [3]: 0.037 µM
Compound: Cc1cncc(-c2ccc3ncc4c(c3c2)n(-c2cn(C)nc2C)c(=O)n4C)c1 [Example 24, 1-(1,3-Dimethyl-1H-pyrazol-4-yl)-3-methyl-8-(5-methyl-pyridin-3-yl)-1,3-dihydro-imidazo[4,5-c]quinolin-2-one]

- IC50 [1]: 0.173 µM
- IC50 [2]: 0.508 µM
- IC50 [3]: 0.363 µM
Compound: CCOc1ccc(-c2ccc3ncc4c(c3c2)n(-c2c(C)nn(C)c2C)c(=O)n4C)cc1OCC [Example 27.2, 8-(3,4-Diethoxy-phenyl)-3-methyl-1-(1,3,5-trimethyl-1H-pyrazol-4-yl)-1,3-dihydro-imidazo[4,5-c]quinolin-2-one]

- IC50 [1]: 0.057 µM
- IC50 [2]: 0.059 µM
- IC50 [3]: 0.026 µM
Compound: CCOc1ccc(-c2ccc3ncc4c(c3c2)n(-c2cn(CC)nc2C)c(=O)n4C)cc1OC [Example 29.1, 8-(4-Ethoxy-3-methoxy-phenyl)-1-(1-ethyl-3-methyl-1H-pyrazol-4-yl)-3-methyl-1,3-dihydro-imidazo[4,5-c]quinolin-2-one]

- IC50 [1]: 0.04 µM
- IC50 [2]: 0.019 µM
- IC50 [3]: 0.006 µM
Compound: Cc1nn(C)cc1-n1c(=O)n(C)c2cnc3ccc(-c4cnc5ccccc5c4)cc3c21 [Example 38, 1-(1,3-Dimethyl-1H-pyrazol-4-yl)-3-methyl-8-quinolin-3-yl-1,3-dihydro-imidazo[4,5-c]quinolin-2-one]

- IC50 [1]: 0.218 µM
- IC50 [2]: 0.134 µM
- IC50 [3]: 0.563 µM
Compound: Cc1nn(C)cc1-n1c(=O)n(C)c2cnc3ccc(-c4cccc(S(=O)(=O)N5CCCC5)c4)cc3c21 [Example 44, 1-(1,3-Dimethyl-1H-pyrazol-4-yl)-3-methyl-8-[3-(pyrrolidine-1-sulfonyl)-phenyl]-1,3-dihydro-imidazo[4,5-c]quinolin-2-one]

- IC50 [1]: 0.029 µM
- IC50 [2]: 0.203 µM
- IC50 [3]: 0.024 µM
Compound: CCn1cc(-n2c(=O)n(C)c3cnc4ccc(-c5cncc(N)c5)cc4c32)c(C)n1 [Example 45.2, 8-(5-Amino-pyridin-3-yl)-1-(1-ethyl-3-methyl-1H-pyrazol-4-yl)-3-methyl-1,3-dihydro-imidazo[4,5-c]quinolin-2-one]

- IC50 [1]: 0.169 µM
- IC50 [2]: 0.213 µM
- IC50 [3]: 0.007 µM
Compound: Cc1nn(C(C)C)cc1-n1c(=O)n(C)c2cnc3ccc(-c4cncc(N)c4)cc3c21 [Example 45.3, 8-(5-Amino-pyridin-3-yl)-1-(1-isopropyl-3-methyl-1H-pyrazol-4-yl)-3-methyl-1,3-dihydro-imidazo[4,5-c]quinolin-2-one]

Source: patent publication US20140005163A1 (NOVARTIS AG, priority 2010, published 2014)
